In PubChem BioAssay (NCI):
Values joined by “and” are separate entries in the source; they are usually repeats but may differ in a detail not shown here. Identical values can stand only once.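 48-hour exposure; five concentrations; linearly interpolated endpoints. GI50 marks 50% less growth. The concentration for full growth arrest is given as TGI.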

Experiments:
Test in all cases: growth of human tumour cells (NCI), 48 h
[1] = system: COLO 205 colon
[2] = system: HL-60(TB) leukemia
[3] = system: HCC-2998 colon
[4] = system: SW-620 colon
[5] = system: DU-145 prostate
[6] = system: SNB-19 CNS
[7] = system: HS 578T breast
[8] = system: NCI-H23 lung
[9] = system: NCI-H460 lung
[10] = system: OVCAR-8 ovarian

| Compound | TGI [1] | TGI [2] | TGI [3] | TGI [4] | TGI [5] | TGI [6] | TGI [7] | TGI [8] | TGI [9] | TGI [10] | GI50 [1] | GI50 [10] | GI50 [3] | GI50 [5] | GI50 [6] | GI50 [8] | GI50 [7] |
| --- | --- | --- | --- | --- | --- | --- | --- | --- | --- | --- | --- | --- | --- | --- | --- | --- | --- |
| CCOC(=O)Nc1sc2c(c1C#N)CCCC2 | > 100 µM | > 100 µM | > 100 µM | > 100 µM | > 100 µM | > 100 µM | > 100 µM | > 100 µM | > 100 µM | – | – | – | – | – | – | – | – |
| Nc1c(-c2ccc(Cl)c(Cl)c2)c2ccc([N+](=O)[O-])cc2c(=O)n1-c1nc2ccccc2s1 | 2.89 µM | – | 92.6 µM | > 100 µM | > 100 µM | > 49.4 µM | – | 3.13 µM | > 100 µM | 17.9 µM | – | – | – | – | – | – | – |
| CC1=Nc2ccccc2OC(C)=C1N=Nc1ccc2nc(C)[nH]c2c1 | > 100 µM | > 100 µM | > 100 µM | > 100 µM | > 100 µM | > 100 µM | – | > 100 µM | > 100 µM | > 100 µM | – | – | – | – | – | – | – |
| c1ccc2c3[nH]c(c2c1)=Nc1ccc(cc1)-c1nc2cc(ccc2o1)N=c1[nH]c(c2ccccc12)=Nc1ccc2nc(oc2c1)-c1ccc(cc1)N=3 | > 100 µM | > 100 µM | > 100 µM | > 100 µM | > 100 µM | > 100 µM | > 100 µM | > 100 µM | > 100 µM | – | – | – | – | – | – | – | – |
| O=c1[nH]c(=S)[nH]c2c1C(c1ccc([N+](=O)[O-])cc1)c1c([nH]c(=S)[nH]c1=O)O2 | > 100 µM | > 100 µM | – | > 100 µM | > 100 µM | > 100 µM | > 100 µM | > 100 µM | > 100 µM | > 100 µM | – | – | – | – | – | – | – |
| Cc1ccc(NC(=O)CC2Sc3ccccc3NC2=O)cc1C (configuration not stated) | > 100 µM | 66.1 µM | > 100 µM | > 100 µM | – | > 100 µM | – | > 100 µM | > 100 µM | > 100 µM | – | – | – | – | – | – | – |
| COc1ccc2cc1Oc1ccc(cc1)C[C@H]1c3cc(c(OC)cc3CCN1C)Oc1c(O)c(OC)cc3c1[C@H](C2)N(C)CC3 | 39.4 µM | 48.2 µM | 24.7 µM | 37.2 µM | – | 134 µM | – | 95.5 µM | 45.2 µM | 8.43 µM | – | – | – | – | – | – | – |
| O=C1c2cc3c(cc2-c2c1c1ccc(F)cc1c(=O)n2C[C@H](O)[C@@H](O)[C@H](O)CO)OCO3 | 0.546 µM | – | 0.38 µM | – | 1.99 µM | 3.01 µM | – | 0.256 µM | – | > 100 µM | 0.106 µM | 0.0904 µM | 0.14 µM | 0.0513 µM | 0.0513 µM | 0.046 µM | – |
| NC(N)=Nc1ccc(CC(N)NCC(=O)O)cc1 (configuration not stated) | > 25 µM | > 25 µM | > 25 µM | > 25 µM | > 25 µM | – | > 25 µM | > 25 µM | – | > 25 µM | – | – | – | – | – | – | – |
| CC(C)=CCC[C@@H](C)c1c(O)c(O)c(C)c2nccnc12 | > 80.7 µM | – | > 96.6 µM | > 100 µM | > 100 µM | > 100 µM | > 80.2 µM | > 79.1 µM | > 100 µM | > 48.6 µM | – | – | – | – | – | – | – |
| COc1ccc(N=NC(=Nc2ccccc2)c2ccc(N(CCC#N)CCC#N)cc2)cc1 | 28.6 µM | – | > 100 µM | > 100 µM | > 100 µM | > 100 µM | > 100 µM | > 100 µM | > 100 µM | > 100 µM | – | – | – | – | – | – | – |
| O=[N+]([O-])c1ccc2[nH]nc(OCc3ccccc3Cl)c2c1 | > 100 µM | > 100 µM | > 100 µM | – | > 100 µM | > 100 µM | > 100 µM | > 100 µM | > 100 µM | > 100 µM | – | – | – | – | – | – | – |
| Oc1ccc2c(c1)c1c(n2CCN2CCOCC2)-c2ccccc2CC1 | – | > 100 µM | – | > 100 µM | – | > 100 µM | 56.9 µM | 82.1 µM | 44.2 µM | > 100 µM | – | – | – | – | – | – | – |
| S=C(N/N=C(/c1ccccc1)c1ccccn1)N(Cc1ccccn1)Cc1ccccn1 | 2.02 µM | > 100 µM | – | 7.72 µM | 4.42 µM | 2.26 µM | > 29.8 µM | 1.57 µM | 4.7 µM | 1.13 µM | – | – | – | – | – | – | – |
| N=c1nnc2ccc(Cl)cc2n1O | 64.5 µM | > 100 µM | > 100 µM | > 100 µM | > 100 µM | > 100 µM | > 100 µM | > 100 µM | – | 92.4 µM | – | – | – | – | – | – | – |
| CC1(C)O[C@H]2OC(CO[Si](C)(C)C(C)(C)C)C(N=[N+]=[N-])[C@H]2O1 (some centres not stated) | – | 23.1 µM | 32.2 µM | 52.4 µM | – | 36.1 µM | 51.5 µM | 39 µM | 43.7 µM | 38.1 µM | – | – | – | – | – | – | – |
| Cc1ccccc1OC(C)C(=O)NN1C(=O)CSC1c1ccccc1 (configuration not stated) | > 100 µM | – | > 100 µM | > 100 µM | > 100 µM | > 100 µM | > 100 µM | > 100 µM | > 100 µM | > 100 µM | – | – | – | – | – | – | – |
| Nc1c(S(=O)(=O)O)cc2cc(S(=O)(=O)O)ccc2c1N=Nc1ccc(-c2ccc(N=Nc3c(N)c(S(=O)(=O)O)cc4cc(S(=O)(=O)O)ccc34)c(S(=O)(=O)O)c2)cc1 | > 100 µM | > 100 µM | > 100 µM | > 100 µM | – | > 100 µM | – | > 100 µM | > 31.6 µM | > 100 µM | – | – | – | – | – | – | – |
| Cc1ccc(-c2cc(-c3ccco3)c(C#N)c(=S)n2C2OC(CO)C(O)C(O)C2O)cc1 (configuration not stated) | > 100 µM | – | > 100 µM | > 100 µM | > 100 µM | > 100 µM | > 100 µM | 90.4 µM and > 100 µM | > 100 µM | 22.6 µM and > 100 µM | – | 4.73 µM and 30.8 µM | – | 30.3 µM | – | 19.7 µM and 51.9 µM | 14.8 µM and 33.2 µM |
| CCC(=O)NC(Nc1cc(C)on1)(C(F)(F)F)C(F)(F)F | – | > 100 µM | > 100 µM | > 100 µM | > 100 µM | > 100 µM | > 100 µM | > 100 µM | > 100 µM | > 100 µM | – | – | – | – | – | – | – |
| N#CC(NCc1cccc(CNC(C#N)c2ccccc2)c1)c1ccccc1 (configuration not stated) | 42.6 µM | 43.4 µM | 28.1 µM | 61.4 µM | > 100 µM | > 100 µM | > 100 µM | > 100 µM | – | > 100 µM | – | – | – | – | – | – | – |
| Cc1ccnc(NS(=O)(=O)c2ccc(N=[N+]=[N-])cc2)n1 | > 100 µM | > 86.3 µM | – | > 100 µM | > 100 µM | > 100 µM | > 100 µM | > 100 µM | > 100 µM | > 100 µM | – | – | – | – | – | – | – |
| COc1ccc2[nH]cc(/C=C(/C)c3ccncc3)c2c1 | 16.4 µM and 13.9 µM | 3.93 µM | 95.3 µM | 27.2 µM and > 100 µM | – | > 100 µM | – | – | 12.5 µM and 22.4 µM | > 100 µM | – | 7.76 µM | – | – | 15.5 µM | 7.07 µM | – |
